Read-outs that look alike come from different tables or passages of the source. Blank lines part the entries; values can stand above or below the molecule they belong to.
Columns and labels:
Assay type in all cases: cell-based
[1] = system: Salmonella (S. aarhus, S. muenster E1 and S. worthington); parameters: key to Salmonella growth or inhibition (MIC test): −: negative sign means inhibition; +: positive sign denotes growth
Protocol: The minimum inhibitory concentration (MIC) of an antimicrobial ingredient is defined as the maximum dilution of the product that will still inhibit the growth of Salmonella. Serial dilutions (0-3%, except for oregano 0-0.3%) were made of the AMI in bacterial growth media and poured in test tubes. The test organisms (S. aarhus, S. muenster E1 and S. worthington) were then added to the dilutions of the AMI ingredients to a final concentration of 10^6 or 10^3 cfu/g, incubated overnight at 30° C., and scored for growth by turbidity or plate counts.
Minimum Inhibitory Concentration was conducted for 10^3 and 10^6 cfu/g Salmonella. Results reported as negative sign means inhibition, while positive sign denotes growth.

Salmonella = test: Scale up challenge testing of canine kibble with Propionic Acid at simulated process steps
Source text: Canine adult pet food compositions with Propionic Acid were produced. Samples were taken to simulate different steps of the process. […] Moisture target was about 20%. 2) The dryer temperature was reduced and belt speed increased. […] Moisture target was about 15%. […] Moisture target was about 8%.
Kibble with intermediate moisture (15% and 20%) was cooled to prevent condensation in the bag and not encourage mold growth.
Extruder, dryer, uncoated base and finished product samples (10 kg each) were inoculated with Salmonella 10^6 cfu/g.
Uncoated base samples were coated with topicals (palatants and fat) after inoculation (Table 10).
Samples were split and incubated in a 30, 50 or 70° C. incubator.
Samples at 70° C. were plated after 0, 15, 30 and 60 minutes.
Samples at 50° C. were plated after 0, 30, 60 and 240 minutes.
Samples at 30° C. were plated after 0, 1, 2, 3, 8 and 15 days.

[2] = system: Salmonella (S. aarhus, S. muenster E1 & S. worthington); settings: for Zone of Inhibition-Diameter, Mean / Zone of Inhibition-Diameter, REP I Plate 1 / Zone of Inhibition-Diameter, REP I Plate 2 / Zone of Inhibition-Diameter, REP II Plate 1 / Zone of Inhibition-Diameter, REP II Plate 2 / Zone of Inhibition-Diameter, REP III Plate 1 / Zone of Inhibition-Diameter, REP III Plate 2: kibble coated
Protocol: The kibble diffusion test has similar principles as the disk diffusion method. […] […] Efficacy of the AMI was validated by measuring how closely the Salmonella cultures grew with respect to the saturated kibbles.
Commercial canine and feline adult pet food compositions in the form of kibbles were coated with potential AMIs. […] After incubation overnight at 30° C., plates were analyzed for presence of clear zones around the kibbles.

[3] = 10^3 cfu/g Salmonella, antimicrobial level 0.03%
[4] = 10^3 cfu/g Salmonella, antimicrobial level 0.15%
[5] = 10^3 cfu/g Salmonella, antimicrobial level 0.3%
[6] = 10^3 cfu/g Salmonella, antimicrobial level 0.9%
[7] = 10^3 cfu/g Salmonella, antimicrobial level 1.5%
[8] = 10^3 cfu/g Salmonella, antimicrobial level 2.1%
[9] = 10^3 cfu/g Salmonella, antimicrobial level 3%
[10] = 10^3 cfu/g Salmonella, antimicrobial level […]
[11] = 10^6 cfu/g Salmonella, antimicrobial level 0.03%
[12] = 10^6 cfu/g Salmonella, antimicrobial level 0.15%
[13] = 10^6 cfu/g Salmonella, antimicrobial level 0.3%
[14] = 10^6 cfu/g Salmonella, antimicrobial level 0.9%
[15] = 10^6 cfu/g Salmonella, antimicrobial level 1.5%
[16] = 10^6 cfu/g Salmonella, antimicrobial level 2.1%
[17] = 10^6 cfu/g Salmonella, antimicrobial level 3%
[18] = 10^6 cfu/g Salmonella, antimicrobial level […]

MIC needed to inhibit Salmonella ([1]; 10^3 and 10^6 cfu/g Salmonella): 0.15% | Salmonella growth or inhibition (MIC test) [1, 3]: − | Salmonella growth or inhibition (MIC test) [1, 4]: − | Salmonella growth or inhibition (MIC test) [1, 5]: − | Salmonella growth or inhibition (MIC test) [1, 6]: − | Salmonella growth or inhibition (MIC test) [1, 7]: − | Salmonella growth or inhibition (MIC test) [1, 8]: − | Salmonella growth or inhibition (MIC test) [1, 9]: − | Salmonella growth or inhibition (MIC test) [1, 10]: − | Salmonella growth or inhibition (MIC test) [1, 11]: − | Salmonella growth or inhibition (MIC test) [1, 12]: − | Salmonella growth or inhibition (MIC test) [1, 13]: − | Salmonella growth or inhibition (MIC test) [1, 14]: − | Salmonella growth or inhibition (MIC test) [1, 15]: − | Salmonella growth or inhibition (MIC test) [1, 16]: − | Salmonella growth or inhibition (MIC test) [1, 17]: − | Salmonella growth or inhibition (MIC test) [1, 18]: −
SMILES: CCCCCCCCCCCC(=O)N[C@@H](CCCN=C(N)N)C(=O)OCC [Lauric Arginate]

SMILES: CCC(=O)O [Propionic Acid]
reduction of Salmonella compared with untreated control (Salmonella; 1, 2 and 3% topically applied): reduced Salmonella by two log cycles more than an untreated control | reduction of Salmonella compared with untreated control (Salmonella; 2 and 3% topical/preconditioner): reduced Salmonella by two log cycles more than an untreated control | reduction of Salmonella compared with untreated control (Salmonella; 3% in preconditioner): reduced Salmonella by two log cycles more than an untreated control | efficacy against Salmonella at points of processing (Salmonella; concentrations of 1%, 2%, and 3%): efficacious against Salmonella at all points of processing | effect on Salmonella (Salmonella; finished product contaminated after enrober, 2% and 3% added topical/preconditioner): positive effect | effect on Salmonella (Salmonella; finished product contaminated after enrober, topical application of 1%, 2% and 3%): positive effect | effect on Salmonella (Salmonella; product coated and inoculated (finished product contaminated after enrober), 3% in the preconditioner): some immediate effect | reduction of Salmonella compared with control (Salmonella; product simulating entry to the airlift, evaporative cooling, dryer after surface cooling, 1%, 2%, and 3%): Reduction of two logs more than control | Salmonella growth or inhibition (MIC test) [1, 3]: + | Salmonella growth or inhibition (MIC test) [1, 4]: + | Salmonella growth or inhibition (MIC test) [1, 5]: + | Salmonella growth or inhibition (MIC test) [1, 6]: − | Salmonella growth or inhibition (MIC test) [1, 7]: − | Salmonella growth or inhibition (MIC test) [1, 8]: − | Salmonella growth or inhibition (MIC test) [1, 9]: − | Salmonella growth or inhibition (MIC test) [1, 10]: − | Salmonella growth or inhibition (MIC test) [1, 11]: + | Salmonella growth or inhibition (MIC test) [1, 12]: + | Salmonella growth or inhibition (MIC test) [1, 13]: − | Salmonella growth or inhibition (MIC test) [1, 14]: − | Salmonella growth or inhibition (MIC test) [1, 15]: − | Salmonella growth or inhibition (MIC test) [1, 16]: − | Salmonella growth or inhibition (MIC test) [1, 17]: − | Salmonella growth or inhibition (MIC test) [1, 18]: − | inhibition of Salmonella, clear zone around the kibbles ([2]; coated kibbles, overnight at 30° C.): inhibited Salmonella | Zone of Inhibition-Diameter, Mean ([2]; 0.65%): 9 mm | Zone of Inhibition-Diameter, REP I Plate 1 ([2]; 0.65%): 8 mm | Zone of Inhibition-Diameter, REP I Plate 2 ([2]; 0.65%): 10 mm | Zone of Inhibition-Diameter, REP II Plate 1 ([2]; 0.65%): 5 mm | Zone of Inhibition-Diameter, REP II Plate 2 ([2]; 0.65%): 10 mm | Zone of Inhibition-Diameter, REP III Plate 1 ([2]; 0.65%): 13 mm | Zone of Inhibition-Diameter, REP III Plate 2 ([2]; 0.65%): 5 mm | Zone of Inhibition-Diameter, Mean ([2]; 2%): 40 mm | Zone of Inhibition-Diameter, REP I Plate 1 ([2]; 2%): 47 mm | Zone of Inhibition-Diameter, REP I Plate 2 ([2]; 2%): 49 mm | Zone of Inhibition-Diameter, REP II Plate 1 ([2]; 2%): 47 mm | Zone of Inhibition-Diameter, REP II Plate 2 ([2]; 2%): 43 mm | Zone of Inhibition-Diameter, REP III Plate 1 ([2]; 2%): 30 mm | Zone of Inhibition-Diameter, REP III Plate 2 ([2]; 2%): 25 mm | Zone of Inhibition-Diameter, Mean ([2]; 3%): 31 mm | Zone of Inhibition-Diameter, REP I Plate 1 ([2]; 3%): 30 mm | Zone of Inhibition-Diameter, REP I Plate 2 ([2]; 3%): 28 mm | Zone of Inhibition-Diameter, REP II Plate 1 ([2]; 3%): 31 mm | Zone of Inhibition-Diameter, REP II Plate 2 ([2]; 3%): 34 mm | Zone of Inhibition-Diameter, REP III Plate 1 ([2]; 3%): 33 mm | Zone of Inhibition-Diameter, REP III Plate 2 ([2]; 3%): 30 mm | Zone of Inhibition-Diameter, Mean ([2]; 3% (in CWG)): 31 mm | Zone of Inhibition-Diameter, REP I Plate 1 ([2]; 3% (in CWG)): 34 mm | Zone of Inhibition-Diameter, REP I Plate 2 ([2]; 3% (in CWG)): 34 mm | Zone of Inhibition-Diameter, REP II Plate 1 ([2]; 3% (in CWG)): 28 mm | Zone of Inhibition-Diameter, REP II Plate 2 ([2]; 3% (in CWG)): 31 mm | Zone of Inhibition-Diameter, REP III Plate 1 ([2]; 3% (in CWG)): 28 mm | Zone of Inhibition-Diameter, REP III Plate 2 ([2]; 3% (in CWG)): 31 mm | Zone of Inhibition-Diameter, Mean ([2]; […]): 21 mm | Zone of Inhibition-Diameter, REP I Plate 1 ([2]; […]): 25 mm | Zone of Inhibition-Diameter, REP I Plate 2 ([2]; […]): 18 mm | Zone of Inhibition-Diameter, REP II Plate 1 ([2]; […]): 25 mm | Zone of Inhibition-Diameter, REP II Plate 2 ([2]; […]): 25 mm | Zone of Inhibition-Diameter, REP III Plate 1 ([2]; […]): 13 mm | Zone of Inhibition-Diameter, REP III Plate 2 ([2]; […]): 20 mm

Reference: patent US20170042193A1, “Pet Food Compositions Having Antimicrobial Activity” (priority 2010, published 2017)
